We go through 75 compounds from US20110105472A1, “Diaminopyrimidines as crop protection agents” (Bayer CropScience AG, priority 2008, published 2011).

A short description of the first series: logP by HPLC on reversed-phase columns (C 18), method [a], acidic range pH 2.3. It counts as physicochemical. The following applies: method [a], HPLC on reversed-phase C 18, acidic range pH 2.3.
`NS(=O)(=O)c1cccc(Nc2ncc(Cl)c(NC3CCC3)n2)c1` [Compound 23]: the log p was 1.52[a].

The series is the same for the next values; noted with them: pH 2.3.
With `NS(=O)(=O)c1cc(Nc2ncc(Cl)c(NC3CCC3)n2)cc(C(F)(F)F)c1` [compound 24], the log p is 2.7[a].
The same measure, in the same setting: with `CN(c1nc(Nc2ccccc2)ncc1Cl)C1CCC1` [compound 245] the figure was 3.32[a]; with `Ic1cnc(Nc2ccccc2)nc1NC1CCC1` [Compound 236], 2.19[a].
Regarding `Clc1ncc(Cl)c(NC2CCC2)n1` [Compound V-1, 2,5-Dichloro-N-cyclobutylpyrimidine-4-amine], the chromatographic logP (in general, lipophilicity estimated from chromatographic retention) turned out to be 2.62.
Compound `Clc1ncc(I)c(NC2CCC2)n1` [Compound V-3, 2-Chloro-N-cyclobutyl-5-iodopyrimidine-4-amine] showed a chromatographic logP of 3.08.
`Cl.Clc1cnc(Nc2ccccc2)nc1NC1CCC1` [Compound 2-2]: the log p was 1.97^[a].
Compound `FC(F)(F)c1cnc(Cl)nc1NC1CCC1` [Compound V-4, 2-Chloro-N-cyclobutyl-5-trifluoromethylpyrimidine-4-amine] returned a chromatographic logP of 3.2.
`CN(C)S(=O)(=O)c1ccc(Nc2ncc(Cl)c(NC3CCC3)n2)cc1.Cl` [Compound 2-7]: the log p is 2.58^[a].
Same read-out and setting: with `O=C1CCCCN1c1cccc(Nc2ncc(Br)c(NC3CCC3)n2)c1` [Compound 217] the figure was 1.77[a].
Take `CCCCNS(=O)(=O)c1ccc(Nc2ncc(Cl)c(NC3CCC3)n2)cc1` [compound 26]: the log p is 2.91[a].
On the same count and under the same terms, with `O=C1CCCCCN1c1cccc(Nc2ncc(Br)c(NC3CCC3)n2)c1` [Compound 215] the figure was 2.08[a].
For the compound `CCCOc1cccc(Nc2ncc(Br)c(NC3CCC3)n2)c1` [Compound 30, 5-Bromo-N^4-cyclobutyl-N^2-(3-propoxyphenyl)pyrimidine-2,4-diamine], the chromatographic logP was found to be 3.27.
For `CC(=O)c1cccc(Nc2ncc(Cl)c(NC3CCC3)n2)c1.Cl` [Compound 2-4], the log p is 2.04^[a].
As for `CC(C)(C)OC(=O)N1CCN(c2ccc(Nc3ncc(Cl)c(NC4CCC4)n3)cc2)CC1` [compound 28], the log p is 2.73[a].
For the compound `O=C1CCCCCN1c1cccc(Nc2ncc(Cl)c(NC3CCC3)n2)c1` [Compound 216], the log p was 1.96[a].
Same read-out and setting: with `O=C1CCCN1c1cc(Nc2ncc(Cl)c(NC3CCC3)n2)ccc1F` [Compound 212] the figure was 1.75[a]; with `CC(C)c1ccc(Nc2ncc(Cl)c(NC3CCC3)n2)cc1.Cl` [Compound 2-5], 2.74^[a].
On the same count and under the same terms, with `Cl.Clc1cccc(Nc2ncc(Cl)c(NC3CCC3)n2)c1` [Compound 2-1] the figure was 3.09^[a]; with `NS(=O)(=O)c1ccc(Nc2ncc(Cl)c(NC3CCC3)n2)cc1` [compound 27], 1.62[a].
With `CNS(=O)(=O)c1ccc(Nc2ncc(Cl)c(NC3CCC3)n2)cc1` [compound 25], the log p was 2.01[a].
Still for that read-out and setting: with `Cc1ccc(S(=O)(=O)O)cc1.Cc1nc(Nc2ccccc2)nc(NC2CCC2)c1Cl` [Compound 2-8] the figure was 1.95^[a].
Take `COc1cc(Nc2ncc(Cl)c(NC3CCC3)n2)cc(OC)c1.Cl` [Compound 2-3]: the log p was 2.23^[a].
Compound `Clc1ncc(Br)c(NC2CCC2)n1` [Compound V-2, 5-Bromo-2-chloro-N-cyclobutylpyrimidine-4-amine] showed a chromatographic logP of 2.87.
For the compound `CC(C)Oc1ccc(Nc2ncc(Cl)c(NC3CCC3)n2)cc1.Cl` [Compound 2-6], the log p is 2.21^[a].

The series is the same for the next values; noted with them: pH 2.3; values given in the preparation examples.
Turning to `NS(=O)(=O)c1cccc(Nc2ncc(Cl)c(NC3CCC3)n2)c1` [Compound 23], the “logP (pH2.3)” value worked out at 1.52.

A short description of another series: logP by LC-MS, method [b], acidic range pH 2.7. It counts as physicochemical.
Conditions: not given
`COC(=O)Nc1cccc(Nc2ncc(Cl)c(NC3CCC3)n2)c1` [Compound 139] displayed a log p of 1.73.

The same series, now with this note: pH 2.7.
The compound `CCCOc1cccc(Nc2ncc(Br)c(NC3CCC3)n2)c1` [Compound 30, 5-Bromo-N^4-cyclobutyl-N^2-(3-propoxyphenyl)pyrimidine-2,4-diamine] registered a chromatographic logP of 3.27.
On to `CC(=O)Nc1cc(Nc2ncc(Br)c(NC3CCC3)n2)ccc1C` [Compound 200], for which the log p was 1.58[b].
`NS(=O)(=O)c1cc(Nc2ncc(Br)c(NC3CCC3)n2)ccc1Cl` [Compound 79]: the log p was 2.02[b].
Take `FC(F)(F)Sc1ccc(Nc2ncc(Br)c(NC3CCC3)n2)cc1` [Compound 71]: the log p is 4.51[b].
In the case of `CC(=O)c1cc(Nc2ncc(Br)c(NC3CCC3)n2)ccc1O` [Compound 177], the log p was 2.09[b].
Same read-out and setting: with `CC(C)Sc1cccc(Nc2ncc(Cl)c(NC3CCC3)n2)c1` [Compound 146] the figure was 3.62[b]; with `CCOC(=O)c1cccc(Nc2ncc(Br)c(NC3CCC3)n2)c1` [Compound 77], 2.77[b].
Take `CNC(=O)c1ccc(Nc2ncc(Cl)c(NC3CCC3)n2)cc1` [Compound 126]: the log p was 1.5[b].
Still for that read-out and setting: with `CC(=O)c1ccc(Nc2ncc(Br)c(NC3CCC3)n2)cc1` [compound 145] the figure was 2.65[b]; with `FC(F)(F)Oc1ccc(Nc2ncc(Br)c(NC3CCC3)n2)cc1` [compound 183], 3.73[b]; with `CNC(=O)c1ccc(Nc2ncc(Br)c(NC3CCC3)n2)cc1` [Compound 101], 1.54[b].
Same read-out and setting: with `O=C1CCCN1c1ccc(Nc2ncc(Cl)c(NC3CCC3)n2)cc1` [compound 133] the figure was 1.66[b]; with `CCSc1cccc(Nc2ncc(Br)c(NC3CCC3)n2)c1` [Compound 228], 3.37[b]; with `CCN(C(C)=O)c1ccc(Nc2ncc(Cl)c(NC3CCC3)n2)cc1` [Compound 119], 1.83[b].
On the same count and under the same terms, with `CC(=O)c1cccc(Nc2ncc(Br)c(NC3CCC3)n2)c1` [Compound 32] the figure was 2.28[b]; with `Clc1cnc(Nc2ccc(NC3CC3)cc2)nc1NC1CCC1` [compound 207], 0.71[b]; with `Fc1cc(F)cc(Nc2ncc(Br)c(NC3CCC3)n2)c1` [compound 144], 3.98[b].
For `N#CCc1cccc(Nc2ncc(Br)c(NC3CCC3)n2)c1` [Compound 220], the log p is 2.12[b].
Same read-out and setting: with `FC(F)(F)Oc1cccc(Nc2ncc(Cl)c(NC3CCC3)n2)c1` [compound 112] the figure was 3.59[b]; with `CC(=O)N(c1ccc(Nc2ncc(Br)c(NC3CCC3)n2)cc1)C1CC1` [Compound 209], 1.9[b]; with `O=C(c1ccc(Nc2ncc(C(F)(F)F)c(NC3CCC3)n2)cc1)N1CCCCC1` [Compound 223], 3.31[b].
In the case of `CC(=O)c1ccc(Nc2ncc(Cl)c(NC3CCC3)n2)cc1` [compound 131], the log p was 2.26[b].
The same measure, in the same setting: with `O=C(Nc1ccc(Nc2ncc(Br)c(NC3CCC3)n2)cc1)OCCCl` [compound 43] the figure was 2.06[b]; with `COC(=O)Nc1ccc(Nc2ncc(Br)c(NC3CCC3)n2)cc1` [Compound 46], 1.62[b]; with `CC(C)c1cccc(Nc2ncc(Cl)c(NC3CCC3)n2)c1` [Compound 243], 3.1[b].
Regarding `CN1C(=O)COc2ccc(Nc3ncc(Br)c(NC4CCC4)n3)cc21` [Compound 13], the log p is 1.83[b].
On the same count and under the same terms, with `O=C1COc2ccc(Nc3ncc(Br)c(NC4CCC4)n3)cc2N1` [Compound 6] the figure was 1.61[b]; with `CC(=O)N1CCc2cc(Nc3ncc(Br)c(NC4CCC4)n3)ccc21` [Compound 17], 1.68[b]; with `COc1cc(Nc2ncc(Cl)c(NC3CCC3)n2)ccc1NC(C)=O` [Compound 108], 1.55[b].
In the case of `O=C1NC(=O)C(c2ccc(Nc3ncc(Br)c(NC4CCC4)n3)cc2)N1` (centres unmarked) [Compound 187], the log p was 1.24[b].
Same read-out and setting: with `CNS(=O)(=O)Cc1ccc(Nc2ncc(Br)c(NC3CCC3)n2)cc1` [Compound 86] the figure was 1.71[b].
Turning to `Clc1cnc(Nc2ccc(I)cc2)nc1NC1CCC1` [compound 230], the log p is 3.49[b].
Take `O=C(Nc1ccc(Nc2ncc(Cl)c(NC3CCC3)n2)cc1)C(F)(F)F` [compound 121]: the log p is 2.09[b].
For the compound `O=C(Nc1cccc(Nc2ncc(Br)c(NC3CCC3)n2)c1)c1ccco1` [Compound 167], the log p is 1.94[b].
The same measure, in the same setting: with `Clc1cc(Cl)cc(Nc2ncc(Br)c(NC3CCC3)n2)c1` [Compound 76] the figure was 4.98[b].
The same measure, in the same setting: with `CC(=O)N1CCc2ccc(Nc3ncc(Br)c(NC4CCC4)n3)cc21` [Compound 12] the figure was 1.78[b].
The same measure, in the same setting: with `Oc1ccc(Nc2ncc(Br)c(NC3CCC3)n2)c(F)c1` [Compound 80] the figure was 1.55[b]; with `O=C1CCCc2ccc(Nc3ncc(Br)c(NC4CCC4)n3)cc2N1` [Compound 15], 1.75[b].
As to `CN(C=O)c1ccc(Nc2ncc(Br)c(NC3CCC3)n2)cc1` [Compound 153], the log p was 1.68[b].
For `COCCNCc1ccc(Nc2ncc(Br)c(NC3CCC3)n2)cc1` [Compound 176], the log p is 1.13[b].
On the same count and under the same terms, with `COCc1cccc(Nc2ncc(Cl)c(NC3CCC3)n2)c1` [Compound 42] the figure was 2.05[b]; with `CCNC(=O)c1cccc(Nc2ncc(Br)c(NC3CCC3)n2)c1` [Compound 190], 1.73[b].
The same measure, in the same setting: with `COc1cc(Nc2ncc(Br)c(NC3CCC3)n2)cc(OC)c1` [Compound 53] the figure was 2.12[b]; with `CNC(=O)c1cccc(Nc2ncc(Cl)c(NC3CCC3)n2)c1` [compound 127], 1.5[b]; with `COc1cc(Nc2ncc(Br)c(NC3CCC3)n2)ccc1NC(C)=O` [Compound 90], 1.59[b].
In the case of `FC(F)Sc1ccc(Nc2ncc(Br)c(NC3CCC3)n2)cc1` [Compound 202], the log p was 3.41[b].
The same measure, in the same setting: with `CCSc1cccc(Nc2ncc(Cl)c(NC3CCC3)n2)c1` [Compound 188] the figure was 3.15[b].
Same read-out and setting: with `O=S1(=O)Cc2ccc(Nc3ncc(Br)c(NC4CCC4)n3)cc2C1` [compound 20] the figure was 1.78[b].
Still for that read-out and setting: with `O=S(=O)(c1ccc(Nc2ncc(Br)c(NC3CCC3)n2)cc1)C(F)(F)F` [compound 193] the figure was 4.32[b].
As for `O=CNc1ccc(Nc2ncc(Br)c(NC3CCC3)n2)cc1` [Compound 152], the log p was 1.47[b].
